Experimental data taken from BindingDB's records for doi:10.1016/j.bmcl.2005.02.006 (Wyeth Research, 2005).

Legend:
[1] = In vitro effective concentration against beta amyloid protein 42 in ELISA
[2] = In vitro effective concentration against beta amyloid protein 40 in ELISA
[3] = In vitro inhibition of amyloid precursor protein 695 activity in CHO cells expressing human APP

| EC50 [1] [µM] | EC50 [2] [µM] | EC50 [3] [µM] | SMILES |
| --- | --- | --- | --- |
| – | 50.6 | – | CCOC(=O)N1CCC(c2ccccc2OC)(S(=O)(=O)c2ccc(OC)cc2)CC1 [4-(4-Methoxy-benzenesulfonyl)-4-(2-methoxy-phenyl)-piperidine-1-carboxylic acid ethyl ester] |
| 3.7 | 2.7 | – | CCOC(=O)N1CCC(c2ccccc2C)(S(=O)(=O)c2ccc(Cl)cc2)CC1 [4-(4-Chloro-benzenesulfonyl)-4-o-tolyl-piperidine-1-carboxylic acid ethyl ester] |
| – | 24.5 | – | CCOC(=O)N1CCC(c2ccccc2C)(S(=O)(=O)c2ccc(OC)cc2)CC1 [4-(4-Methoxy-benzenesulfonyl)-4-o-tolyl-piperidine-1-carboxylic acid ethyl ester] |
| – | 97 | – | CCOC(=O)N1CCC(c2ccccc2)(S(=O)(=O)c2ccc(OC)cc2)CC1 [4-(4-Methoxy-benzenesulfonyl)-4-phenyl-piperidine-1-carboxylic acid ethyl ester] |

The remaining lines, values behind:

| SMILES | EC50 [1] [µM] | EC50 [2] [µM] | EC50 [3] [µM] |
| --- | --- | --- | --- |
| CCOC(=O)N1CCC(c2ccccc2OC)(S(=O)(=O)c2ccc(Cl)cc2)CC1 [ethyl 4-(4-chlorophenylsulfonyl)-4-(2-methoxyphenyl)piperidine-1-carboxylate] | 5 | 3.5 | 1.03 |
| CCOC(=O)N1CCC(c2ccccc2)(S(=O)(=O)c2ccc(Cl)cc2)CC1 [ethyl 4-[(4-chlorobenzene)sulfonyl]-4-phenylpiperidine-1-carboxylate] | 20.9 | 12.2 | – |
| CCOC(=O)N1CCC(c2ccccc2C)(S(=O)(=O)c2ccccc2)CC1 [4-Benzenesulfonyl-4-o-tolyl-piperidine-1-carboxylic acid ethyl ester] | – | 48.6 | – |
| CCOC(=O)N1CCC(c2ccccc2OC)(S(=O)(=O)c2ccccc2)CC1 [4-Benzenesulfonyl-4-(2-methoxy-phenyl)-piperidine-1-carboxylic acid ethyl ester] | – | 62.7 | – |
| CCCNC(=O)OC[C@@H](C)N(c1cc(Cl)ccc1CO)S(=O)(=O)c1ccc(Cl)cc1 [BMCL18464 Compound 14] | – | 0.1 | – |
